Read-outs that look alike come from different tables or passages of the source.
Key:
LPS stimulated PBMC = assay: TNF secretion in LPS stimulated PBMC (ELISA); type: cell-based; conditions: Homo sapiens, primed with compound 3 h, LPS 1 ng/ml 8 h
Experimental: (§1) Figure 4 Tested compounds reduce TNF secretion in LPS stimulated mouse RAW264.7 and human PBMCs. A. 5×10^5 RAW264.7 cells were seeded in 96 wells for 18 h. Cells were primed with compounds at different concentration for 3 h before treated with LPS (1 ng/ml) for additional 8 h. TNF cytokine releases were monitored by ELISA. B. PBMC (0.2 ml at 1×10^5/ml) were primed with compounds at different concentration for 3 h before treated with LPS (1 ng/ml) for additional 8 h. TNF cytokine releases were monitored by ELISA. % of TNF secretion were calculated and graphed. C. Summary of compound IC50. The data represent n = 3–6 experiments. TEXT PRINTED IN THE PICTURE: (C) C6: RAW 264.7: 400nM; PBMC: 90nM | (C) C7: RAW 264.7: 8uM; PBMC: 10uM | (C) C9: RAW 264.7: 100nM; PBMC: 80nM | (C) C13: RAW 264.7: 70nM; PBMC: 25nM
(§2) 5×10^5 RAW264.7 cells were seeded in 96 wells for 18 h. Cells were primed with compounds at different concentration for 3 h before treated with LPS (1 ng/ml) for additional 8 h. TNF cytokine releases were monitored by ELISA. PBMC (0.2 ml at 1×10^5/ml) were primed with compounds at different concentration for 3 h before treated with LPS (1 ng/ml) for additional 8 h. TNF cytokine releases were monitored by ELISA. % of TNF secretion were calculated and graphed.

PDE4 [1] = assay: PDE-Glo phosphodiesterase activity assay, PDE4; type: biochemical, human; conditions: for IC50: 10 mU purified PDE4 per reaction, PDE-Glo assay
Experimental: Compounds 1–14 (Fig. 2) were tested in vitro using PDE-glo phosphodiesterase assay (Promega, Madison, WI). Briefly, all the compounds were diluted in DMSO, and the final concentrations in each assay were 100, 10, 1, 0.1, 0.01, 0.001, 0.0001 µM. For the PDE4 activity assay, 10 mU of purified PDE4D (Millipore) was used per reaction. […] PDE4 = 8 µM.
(§3) For the PDE activity assay, all test compounds were diluted in DMSO with final concentrations in each assay of 100, 10, 1, 0.1, 0.01, 0.001, 0.0001 µM. For the PDE4 activity assay, 10 mU of purified PDE4 (Millipore) was used per reaction. Compounds 6, 7, 9 and 13 (blue underline) were further tested in PDE3, 5, 7, 10 activity assays in which 25 mU of purified enzyme was used per reaction. Summary of compound IC50 in lower right corner. TEXT PRINTED IN THE PICTURE: Compound 6: PDE3: >100uM; PDE4: 90nM; PDE5: 80uM; PDE7: >100uM; PDE10: >100uM | Compound 7: PDE3: >100uM; PDE4: 8uM; PDE5: >100uM; PDE7: >100uM; PDE10: >100uM | Compound 9: PDE3: >100uM; PDE4: 60nM; PDE5: >100uM; PDE7: >100uM; PDE10: >100uM | Compound 13: PDE3: >100uM; PDE4: 10nM; PDE5: 90uM; PDE7: >100uM; PDE10: >100uM
(§4) A PDE activity assay was carried out using the PDE-Glo Phosphodiesterase Assay per manufacturer’s instruction (Promega). Briefly, 5 ul of 1X PDE-Glo Reaction buffer containing 10 mU of purified human recombinant PDE4A4 (Millipore) was added to 96 well plate. All test compounds were dissolved in DMSO and a serial dilution (110) of the inhibitors were performed using 1X PDE-Glo Reaction buffer. 7.5 ul of test compounds were added to the PDE enzyme with the final concentrations in each assay of 100, 10, 1, 0.1, 0.01, 0.001, 0.0001 µM, and incubated at room temperature for 10 min. To initiate the PDE reaction, 12.5 ul of 2 µM cAMP was added to each reaction, mixed well and incubate at room temperature for 10 min. The reactions were terminated using 12.5 ul of PDE-Glo Termination Buffer. 12.5 ul of PDE-Glo Detection Solution containing PDE-Glo Detection Buffer and Protein Kinase A was added to each reaction. The reactions were carried at room temperature for 20 min. 50 ul of Kinase-Glo Reagent was then added to each reaction, mixed well, and incubate for 10 minutes at room temperature. The chemical luminescence signals were measured, quantified and graphed. Compounds 6, 7, 9 and 13 were further tested similarly using 25 mU purified PDE3, 5, 7, 10 (Millipore) enzyme.

PDE5 = target: T1, PDE5 (Homo sapiens, UniProt O76074); assay: PDE-Glo phosphodiesterase activity assay, PDE5; type: biochemical; conditions: 25 mU purified enzyme per reaction
T1 construct: purchased Millipore
Experimental: as §3, §4

[2] = test system: C57/BL6 mice challenged with H1N1 (A/PR/8/34); assay: H1N1 pneumonia model; type: in vivo, mouse; conditions: 30 µg/ml in drinking water, estimated dose 5 mg/kg/d; for survival of mice infected with H1N1: versus diluent
PDE3 = assay: PDE-Glo phosphodiesterase activity assay, PDE3; type: biochemical; conditions: 25 mU purified enzyme per reaction
Experimental: as §3, §4

[3] = test system: murine models of inflammation; conditions: parenteral and oral application; for severity of tissue injury: in each of the models
PDE10 = target: T2, PDE10 (Homo sapiens, UniProt Q9Y233); assay: PDE-Glo phosphodiesterase activity assay, PDE10; type: biochemical; conditions: 25 mU purified enzyme per reaction
T2 construct: purchased Millipore
Experimental: as §3, §4

[4] = test system: C57/BL6 mice given LPS (E. coli, 100 µg i.p.); assay: LPS septic shock model; type: in vivo, mouse; conditions: for ID50 IL-6 / inhibitory dose [ID50] TNF: i.p. 10 min before LPS 100 ug i.p., blood 2 h later
Experimental: Mice were euthanized 2 h later using pentobarbital where blood was collected and assayed for IL6 and TNF cytokine levels. […] In a separate experiment, a brief pharmacokinetic study was performed where PDE4 inhibitors (1 mg/kg, i.p.) were given to mice 18 h before LPS administration (E. coli, 100 ug i.p.).
Figure 6 PDE4 inhibitors lessen cytokine storm induced by LPS septic shock. C57/BL6 mice were administered i.p. nothing (CON), vehicle, 10 ug/kg, 100 ug/kg, 1 mg/kg or 10 mg/kg of compounds 6, 7 or 9. Mice were given LPS (E. coli, 100 µg) 10 min later through an i.p. injection. 2 h later mice were euthanized using pentobarbital and blood was collected for IL-6 and TNF measurements. Shown in panel A–B is the % inhibition of cytokine levels as a function of drug dose. The data represent n = 3 mice/group at each dose. C57/BL6 mice were also pretreated with compound 5, 6, 7 or 9 at 1 mg/kg. Mice were given LPS (E. coli, 100 µg) 18 h later through an i.p. injection. 2 h later the mice were euthanized using pentobarbital and blood was collected for IL-6 and TNF measurements (C–D).
Compounds were diluted in PBS and various amounts (0.01, 0.1, 1 and 10 mg/kg) of compounds were administered to mice though an i.p. injection. 10 min later, mice were given 100 µg of LPS (E. coli) through an i.p. injection. 2 h later, mice were euthanized. Plasma was collected and processed for cytokine assays.

[5] = test system: LPS stimulated RAW264.7 cells; assay: TNF secretion in LPS stimulated RAW264.7 cells (ELISA); type: cell-based; conditions: Mus musculus, primed with compound 3 h, LPS 1 ng/ml 8 h, read-out: IC50 TNF secretion, RAW 264.7
Experimental: as §1, §2

[6] = test system: LPS stimulated RAW264.7 and PBMC cells; assay: TNF secretion in LPS stimulated cells, RAW264.7 and PBMC; type: cell-based, mouse; human; conditions: Mus musculus
Experimental: Compound 6, 7, 9 and 13 were also tested in LPS stimulated RAW264.7 (Fig. 4A) and PBMC (Fig. 4B) cells to evaluate their ability to suppress TNF secretion. […] PDE4. […] TNF ranging from 25–75 nM (Fig. 4C).
as §1, §2

PDE7 = assay: PDE-Glo phosphodiesterase activity assay, PDE7; type: biochemical; conditions: 25 mU purified enzyme per reaction
Experimental: as §3, §4

PDE4 [7] = test system: PDE4; parameters: method as in PMID 15476679; conditions: selective inhibitors of PDE4 isolated from traditional Chinese medicines; cited from earlier work
[8] = RAW264.7, range over both cell types (and over the compounds named)

T2 sequence (Q9Y233 whole entry): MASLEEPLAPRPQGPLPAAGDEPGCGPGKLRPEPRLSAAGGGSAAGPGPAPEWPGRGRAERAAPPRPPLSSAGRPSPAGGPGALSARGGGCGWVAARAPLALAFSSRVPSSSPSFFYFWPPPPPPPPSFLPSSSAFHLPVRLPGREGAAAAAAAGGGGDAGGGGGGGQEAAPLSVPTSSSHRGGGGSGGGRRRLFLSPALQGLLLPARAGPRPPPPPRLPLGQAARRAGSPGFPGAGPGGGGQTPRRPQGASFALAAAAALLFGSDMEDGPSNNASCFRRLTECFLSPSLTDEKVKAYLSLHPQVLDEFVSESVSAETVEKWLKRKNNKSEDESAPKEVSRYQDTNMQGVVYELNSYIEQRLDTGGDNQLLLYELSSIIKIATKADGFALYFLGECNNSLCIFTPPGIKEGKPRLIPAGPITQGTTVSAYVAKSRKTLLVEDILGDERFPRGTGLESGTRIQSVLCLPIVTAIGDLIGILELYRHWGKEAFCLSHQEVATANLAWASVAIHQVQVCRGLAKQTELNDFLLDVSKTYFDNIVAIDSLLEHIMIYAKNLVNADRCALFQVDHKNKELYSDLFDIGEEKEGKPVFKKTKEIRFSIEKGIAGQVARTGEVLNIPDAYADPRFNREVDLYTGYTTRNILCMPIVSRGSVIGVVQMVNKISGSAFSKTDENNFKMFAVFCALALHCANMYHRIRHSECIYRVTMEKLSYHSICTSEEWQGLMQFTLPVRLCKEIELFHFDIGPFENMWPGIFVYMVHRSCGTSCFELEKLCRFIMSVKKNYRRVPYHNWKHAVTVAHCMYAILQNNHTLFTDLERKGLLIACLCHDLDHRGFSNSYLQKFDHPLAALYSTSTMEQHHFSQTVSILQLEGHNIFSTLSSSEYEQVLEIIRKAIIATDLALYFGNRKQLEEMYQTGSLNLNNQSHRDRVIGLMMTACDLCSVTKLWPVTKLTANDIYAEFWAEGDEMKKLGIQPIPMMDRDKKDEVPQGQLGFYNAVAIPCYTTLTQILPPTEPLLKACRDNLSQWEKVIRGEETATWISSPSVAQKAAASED

Compound	IC50 (LPS stimulated PBMC) [nM]	IC50 (PDE4 [1]) [nM]	times weaker in activity toward PDE4 compared with compound 6 (PDE4 [1]; in vitro) [times]	IC50 (PDE5) [µM]	lavage cell counts, protein concentrations, and lavage cytokine IL-6 and TNF [2]	serum cytokines from H1N1-induced systematic inflammation [2]	signs of tissue injury (H&E, lung) [2]	survival of mice infected with H1N1 [2]	IC50 (PDE3) [µM]	severity of tissue injury [3]	overt signs of distress in treated animals [3]	IC50 (PDE10) [µM]	ID50 IL-6 [4]	inhibitory dose [ID50] TNF [4]	IC50 [5] [nM]	IC50 ([6]; RAW264.7, range over both cell types) [nM]	IC50 (PDE7) [µM]	IC50 (PDE4 [7]) [µM]	serum TNF and IL-6 after 18 h lead time ([4]; 1 mg/kg i.p. 18 h before LPS 100 ug i.p.)	IC50 [6, 8] [nM]
COc1ccc([C@@H]2OC[C@H]3[C@@H]2CO[C@@H]3c2ccc(O[C@@H]3O[C@H](CO)[C@@H](O)[C@H](O)[C@H]3O)c(OC)c2)cc1OC [Compound 7, Forsythin]	10000	8000	> 80	> 100	decreased	significantly reduced	able to lessen signs of tissue injury	significantly improved the survival	> 100	lessen severity of tissue injury	none of the animals treated with the agents exhibited overt signs of distress	> 100	0.1∼1 mg/kg	0.01∼1 mg/kg	8000	8000 to 10000	> 100			
COc1cc(O)c2c(=O)c(-c3ccc(O)cc3)coc2c1 [prunetin]																		10 to 100		
COc1ccc([C@@H]2CC(=O)c3c(O)cc(O)cc3O2)cc1O [Hesperetin]																		10 to 100		
COc1cccc(CN2N=NC3C(=O)N(c4ccc(OC)c(OC)c4)C(=O)C32)c1 (stereo not drawn) [Compound 9]	80	60		> 100	decreased	significantly reduced	able to lessen signs of tissue injury	significantly improved the survival	> 100	lessen severity of tissue injury	none of the animals treated with the agents exhibited overt signs of distress	> 100	0.1∼1 mg/kg	0.01∼1 mg/kg	100		> 100		excellent efficacy reducing both serum TNF and IL-6 cytokines	25 to 400
COc1ccc(C2OCC3(O)C(c4ccc(OC)c(OC)c4)OCC23)cc1OC (stereo not drawn) [Compound 6]	90	90		80	decreased	significantly reduced	able to lessen signs of tissue injury	significantly improved the survival	> 100	lessen severity of tissue injury	none of the animals treated with the agents exhibited overt signs of distress	> 100	0.1∼1 mg/kg	0.01∼1 mg/kg	400		> 100			25 to 400
COc1ccc(N2C(=O)C3N=NN(CC(=O)Nc4cc(C)cc(C)c4)C3C2=O)cc1OC (stereo not drawn) [Compound 13]	25	10		90	decreased	significantly reduced	able to lessen signs of tissue injury	significantly improved the survival	> 100	lessen severity of tissue injury	none of the animals treated with the agents exhibited overt signs of distress	> 100			70		> 100			25 to 400

Source: publication PMC4280171, “Novel PDE4 Inhibitors Derived from Chinese Medicine Forsythia” (PLoS ONE, 2014)
